Measurements from ChEMBL document CHEMBL5241090, “A comprehensive overview of β-carbolines and its derivatives as anticancer agents” (Eur J Med Chem, 2021).
≈ marks a conversion by molar mass, not a printed value. Each block holds one compound with its values, some of them ahead of it.

Tests used:
Assay type in all cases: functional, cell-based
MCF7 [1] = test: Cytotoxicity against human MCF7 cells
HeLa [2] = test: Cytotoxicity against human HeLa cells
Hep 3B2 = test: Cytotoxicity against human Hep3B cells
CNE = test: Cytotoxicity against human CNE-1 cells incubated for 72 hrs by MTT assay
CNE-2 = test: Cytotoxicity against human CNE-2 cells incubated for 72 hrs by MTT assay; conditions: CNE-2, 72 h
HONE1 cell line = test: Cytotoxicity against human HONE1 cell line incubated for 72 hrs by MTT assay; conditions: HONE1, 72 h
SUNE1 = test: Cytotoxicity against human SUNE1 cells incubated for 72 hrs by MTT assay; conditions: SUNE1, 72 h
HepG2 [3] = test: Cytotoxicity against human HepG2 cells incubated for 72 hrs by MTT assay; conditions: HepG2, 72 h
[4] = Cytotoxicity against human QGY-7701 cells incubated for 72 hrs by MTT assay; conditions: QGY7701, 72 h
HL-60 = test: Cytotoxicity against human HL-60 cells; conditions: Homo sapiens, HL-60; read-out: IC50
PC-3 [5] = test: Cytotoxicity against human PC-3 cells
SGC-7901 = test: Cytotoxicity against human SGC-7901 cells
[6] = Cytotoxicity against mouse J558 cells assessed as growth inhibition measured upto 48 hrs by CCK-8 assay; conditions: J558, 48 h
Ramos = test: Cytotoxicity against human Ramos RA.1 cells assessed as growth inhibition measured upto 48 hrs by CCK-8 assay
COLO 205 = test: Antiproliferative activity against human COLO 205 cells
A549 [7] = test: Cytotoxicity against human A549 cells by MTT assay
HCT-116 = test: Cytotoxicity against human HCT-116 cells
SR = test: Cytotoxicity against human SR cells
RPMI-8226 = test: Cytotoxicity against human RPMI-8226 cells
NCI-H460 [8] = test: Antitumor activity against human NCI-H460 cells assessed as inhibition of cell growth measured after 48 hrs by spectrophotometric analysis; conditions: NCI-H460, 48 h
HT-29 = test: Antitumor activity against human HT-29 cells assessed as inhibition of cell growth measured after 48 hrs by spectrophotometric analysis; conditions: HT-29, 48 h
PC-3 [9] = test: Antitumor activity against human PC-3 cells assessed as inhibition of cell growth measured after 48 hrs by spectrophotometric analysis; conditions: PC-3, 48 h
MCF7 [10] = test: Antitumor activity against human MCF7 cells assessed as inhibition of cell growth measured after 48 hrs by spectrophotometric analysis; conditions: MCF7, 48 h
786-0 = test: Antitumor activity against human 786-0 cells assessed as inhibition of cell growth measured after 48 hrs by spectrophotometric analysis; conditions: 786-0, 48 h
U-251 = test: Antitumor activity against human U-251 cells assessed as inhibition of cell growth measured after 48 hrs by spectrophotometric analysis; conditions: U-251, 48 h
NCI/ADR-RES = test: Antitumor activity against human NCI-ADR-RES cells assessed as inhibition of cell growth measured after 48 hrs by spectrophotometric analysis
OVCAR-3 [11] = test: Antitumor activity against human OVCAR-3 cells assessed as inhibition of cell growth measured after 48 hrs by spectrophotometric analysis; conditions: OVCAR-3, 48 h
HaCaT = test: Antitumor activity against human HaCaT cells assessed as inhibition of cell growth measured after 48 hrs by spectrophotometric analysis
HeLa [12] = test: Cytotoxicity against human HeLa cells measured after 24 hrs by MTT assay
HepG2 [13] = test: Cytotoxicity against human HepG2 cells measured after 24 hrs by MTT assay; conditions: HepG2, 24 h
PC-3 [14] = test: Antiproliferative activity against human PC-3 cells
A549 [15] = test: Antiproliferative activity against human A549 cells incubated for 72 hrs by MTT assay; conditions: A549, 72 h
MDA-MB-231 = test: Antiproliferative activity against human MDA-MB-231 cells incubated for 72 hrs by MTT assay; conditions: MDA-MB-231, 72 h
PANC-1 = test: Antiproliferative activity against human PANC-1 cells incubated for 72 hrs by MTT assay; conditions: PANC-1, 72 h
T98G = test: Antiproliferative activity against human T98G cells incubated for 72 hrs by MTT assay
Hs 683 = test: Antiproliferative activity against human Hs 683 cells incubated for 72 hrs by MTT assay; conditions: Hs 683, 72 h
A549 [16] = test: Cytotoxicity against human A549 cells
HCT-15 = test: Cytotoxicity against human HCT-15 cells
NCI-H460 [17] = test: Cytotoxicity against human NCI-H460 cells
CCRF-CEM = test: Cytotoxicity against human drug sensitive CCRF-CEM cells assessed as fluorescence incubated for 72 hrs by resazurin reduction assay
Keratinocyte = test: Cytotoxicity against guinea pig ear keratinocytes using [3H]thymidine by liquid scintillation counting analysis; conditions: Cavia porcellus
ADR5000 cell line = test: Cytotoxicity against human multidrug-resistant CEM/ADR5000 cells assessed as fluorescence incubated for 72 hrs by resazurin reduction assay; conditions: ADR5000, 72 h
HCC1395 = test: Antiproliferative activity against human HCC1395 cells incubated for 48 hrs by MTT assay; conditions: HCC1395, 48 h
DU-145 = test: Antiproliferative activity against human DU-145 cells incubated for 48 hrs by MTT assay; conditions: DU-145, 48 h
Malme-3M = test: Cytotoxicity against human Malme-3M cells
OVCAR-3 [18] = test: Cytotoxicity against human OVCAR-3 cells

SMILES: CCCCCCCCCCCCCCCCCCCCCCCC(=O)N1CCc2c([nH]c3ccc(O)cc23)[C@H]1Cc1ccc(O)cc1
IC50 (MCF7 [1]): < 2000 nM
IC50 (HeLa [2]): < 2000 nM
IC50 (Hep 3B2): < 2000 nM

SMILES: O=C(c1nccc2c1[nH]c1ccccc12)[C@@H](O)CCCO
IC50 (CNE): 16.3 µM
IC50 (CNE-2): 20.6 µM
IC50 (HONE1 cell line): 20.1 µM
IC50 (SUNE1): 45.3 µM
IC50 (HepG2 [3]): 50.9 µM
IC50 [4]: 29 µM

SMILES: COC(=O)NCCc1c(C(=O)C[C@]2(C)c3[nH]c4cc(OC)ccc4c3CCN2C(=O)OC)[nH]c2cc(OC)ccc12
IC50 (HL-60): 3.81 µM
IC50 (PC-3 [5]): 11.5 µM
IC50 (SGC-7901): 15.2 µM

SMILES: CCCCn1c2ccccc2c2cc[n+](Cc3ccc(F)cc3)c(-c3ccccc3Cl)c21
IC50 [6]: 8.02 µM
IC50 (Ramos): 9.08 µM

IC50 (COLO 205): 2700 nM
SMILES: CC(C)(C)OC(=O)n1cc(C/C=C(\c2cn(C(=O)OC(C)(C)C)c3ccccc23)C2NCCc3c2[nH]c2ccccc32)c2ccccc21 (stereo not given)

SMILES: C[C@@H](O)CCCCC(=O)c1nccc2c1[nH]c1ccccc12
IC50 (A549 [7]): 1700 nM

SMILES: O=C(Cn1c2ccccc2c2ccncc21)N/N=C/c1cccc2ccccc12
IC50 (HCT-116): 3500 nM
IC50 (SR): 6.3 µM
IC50 (RPMI-8226): 7.8 µM

IC50 (NCI-H460 [8]): 80 nM
IC50 (HT-29): 80 nM
IC50 (PC-3 [9]): 80 nM
IC50 (MCF7 [10]): 80 nM
IC50 (786-0): 80 nM
IC50 (U-251): 80 nM
IC50 (OVCAR-3 [11]): 80 nM
SMILES: c1ccc(-c2nc(-c3nnc4snnn34)cc3c2[nH]c2ccccc23)cc1
IC50 (NCI/ADR-RES): 80 nM
IC50 (HaCaT): 80 nM

SMILES: COC(=O)c1cc2c([nH]c3ccccc32)c(-c2cccc(OCc3cn(-c4ccc(Cl)c(Cl)c4)nn3)c2)n1
IC50 (HeLa [12]): 46 µM
IC50 (HepG2 [13]): 32 µM

IC50 (PC-3 [14]): 8 µM
SMILES: COc1c[n+](Cc2ccccc2)c2ccc(=O)n3c4ccccc4c1c23

IC50 (A549 [15]): 200 nM
IC50 (MDA-MB-231): 200 nM
IC50 (PANC-1): 200 nM
SMILES: CCCn1c2cc(OCCC(C)C)ccc2c2cc[n+](Cc3ccccn3)c(C)c21
IC50 (T98G): 200 nM
IC50 (Hs 683): 200 nM

SMILES: COc1ccc(OC)c(-c2nc(/C=C3/C(=O)N(Cc4ccccc4)c4ccc(Br)cc43)cc3c2[nH]c2ccccc23)c1
IC50 (A549 [16]): 1430 nM
IC50 (MCF7 [1]): 1430 nM
IC50 (HCT-116): 1430 nM
IC50 (HCT-15): 1430 nM
IC50 (NCI-H460 [17]): 1430 nM

IC50 (HCC1395): 8.12 µg/mL (≈ 36.9 µM)
IC50 (DU-145): 9.43 µg/mL (≈ 42.8 µM)
SMILES: O=c1ccc2nccc3c4ccccc4n1c23 [CANTHIN-6-ONE]
IC50 (CCRF-CEM): 15.8 µM
IC50 (Keratinocyte): 1.11 µg/mL (≈ 5.04 µM)
IC50 (ADR5000 cell line): 10.5 µM

SMILES: O=C1c2ccccc2-[n+]2ccc3c([nH]c4ccccc43)c21 [FASCAPLYSIN]
IC50 (A549 [16]): 0.38 µg/mL
IC50 (MCF7 [1]): 0.14 µg/mL
IC50 (Malme-3M): 0.03 µg/mL
IC50 (OVCAR-3 [18]): 0.16 µg/mL
